Experimental findings from BindingDB's records for doi:10.7270/Q24748BK (Burnham Center For Chemical Genomics, 2010) are described below.

This test deals with T1, Tyrosine-protein phosphatase non-receptor type 22 (Homo sapiens, UniProt Q9Y2R2).
T1 sequence (Q9Y2R2 whole entry): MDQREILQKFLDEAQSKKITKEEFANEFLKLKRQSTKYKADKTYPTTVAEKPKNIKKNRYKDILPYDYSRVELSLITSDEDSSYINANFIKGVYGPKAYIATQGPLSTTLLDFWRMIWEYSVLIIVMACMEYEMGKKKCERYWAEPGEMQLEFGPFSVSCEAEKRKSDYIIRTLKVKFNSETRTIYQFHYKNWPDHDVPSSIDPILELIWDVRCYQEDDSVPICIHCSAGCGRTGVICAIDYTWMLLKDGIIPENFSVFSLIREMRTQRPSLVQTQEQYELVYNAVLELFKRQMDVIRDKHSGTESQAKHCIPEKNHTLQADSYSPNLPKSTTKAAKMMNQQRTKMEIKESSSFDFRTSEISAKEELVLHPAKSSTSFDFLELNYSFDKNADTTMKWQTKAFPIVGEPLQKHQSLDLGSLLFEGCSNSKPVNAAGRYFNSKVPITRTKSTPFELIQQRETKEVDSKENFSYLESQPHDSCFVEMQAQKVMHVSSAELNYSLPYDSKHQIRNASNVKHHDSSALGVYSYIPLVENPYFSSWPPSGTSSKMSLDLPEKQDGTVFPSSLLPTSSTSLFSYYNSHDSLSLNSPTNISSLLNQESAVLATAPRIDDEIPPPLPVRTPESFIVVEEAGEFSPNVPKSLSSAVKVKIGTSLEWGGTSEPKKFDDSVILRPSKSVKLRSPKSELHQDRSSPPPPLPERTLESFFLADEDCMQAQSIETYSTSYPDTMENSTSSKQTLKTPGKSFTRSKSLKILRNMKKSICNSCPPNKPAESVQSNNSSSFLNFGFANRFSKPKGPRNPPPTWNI
Nature of the test: concentration-dependent PTPN22 LYP inhibition – biochemical, pCAP substrate, fluorescence intensity, dose response (AID 435027).

For the compound `N=C(NN=Cc1ccc2c(c1)OCO2)Sc1cc(O)n(-c2ccc(C(=O)O)cc2)c1O` [4-(3-{[[(2E)-2-(1,3-benzodioxol-5-ylmethylene)hydrazino](imino)methyl]thio}-2,5-dioxopyrrolidin-1-yl)benzoic acid], the midpoint of inhibition, the IC50, lay at 7.65 µM. In other words, the single-digit micromolar range. To `O=C1C([N+](=O)[O-])=CC(Br)=CC1/C=N/n1cnnc1` (stereo not given) [MLS000714804] belongs more than 79.4 µM. For `COC1=CC=CC(/C=N/NC(=O)c2cc3cc([N+](=O)[O-])ccc3s2)C1=O` (stereo not given) [SMR000237814] the value was 15.7 µM; for `CCOC(=O)NC(=O)C(C=Nc1ccc(C)cc1)C(=O)NC(=O)OCC` [ethyl 2-{[(ethoxycarbonyl)amino]carbonyl}-3-(4-toluidino)acryloylcarbamate], more than 79.4 µM. For `Cc1ccc(NN=C2C(=O)N(CN3CCOCC3)c3ccccc32)cc1` [(3Z)-3-[(4-methylphenyl)hydrazinylidene]-1-(4-morpholinylmethyl)-2-indolone] the value was more than 79.4 µM.
